Measurements published in article PMC10292217, “Gene-nutrient interactions that impact magnesium homeostasis increase risk for neural tube defects in mice exposed to dolutegravir” (Frontiers in Cell and Developmental Biology, 2023).
Read-outs that look alike come from different tables or passages of the source.

Legend:
[1] = Plasma DTG pharmacokinetics (LC-MS/MS, NCA) in LM/Bc mice; format: in vivo, mouse; details: for Tmax / half-life / Cmax / AUC(0-t): female, mouse, plasma; for half-life: read-out: t½ (converted); for Cmax / AUC(0-t): high Mg2+ soy diet; for AUC(0-t): read-out: AUC 0-24
Description: Baseline blood samples were collected via cheek bleed (submandibular vein) from all animals prior to timed matings, and again on GD 9.5. A Goldenrod sterile lancet (MEDIpoint, Inc., Mineola, NY) was used to lance the submandibular vein, and 3-4 drops (∼100 µL) of blood was collected into a Microvette CB 300 Lithium Heparin plasma separator tube (SARSTEDT AG and Co., Germany) and then centrifuged at 2000 g for 8 min. Plasma samples were frozen at −80 °C for LCMS analysis of DTG or ICP-MS determination of cations. DTG detection and quantification was performed at Creighton University using a previously published method ([Bennetto-Hood et al., 2014]) with minor modifications. Briefly, a seven-point calibration curve ranging from 0.1 to 100 μg/mL was challenged with quality control vials at known concentrations of 5, 20, and 80 μg/mL. All controls and calibrators with known drug concentrations were added to DTG-free mouse plasma. To initiate protein precipitation, 120 µL of acetonitrile containing 10 ng/mL of d5- DTG internal standard (Cayman Chemical, Ann Arbor, MI) was added to 20 µL mouse plasma (calibrators, controls, unknown samples), and mixed for 2 min on an orbital shaker (1500 rpm), followed by centrifugation at 2,655 g for 5 min. […] LC-MSMS separation was achieved using Agilent 1200 liquid chromatography devices and an AB Sciex 3200 Q-Trap mass spectrometer. The mobile phase consisted of an isocratic gradient of 0.1% formic acid in water:0.1% formic acid in acetonitrile (60:40) with a flow rate of 0.475 mL/min across an XBridge C18 column (Waters, Milford, MA, United States). […] Strains and treatments were compared by 2-way ANOVA followed by post hoc analyses. Pairwise comparisons of the proportion of affected embryos in each litter between strains and treatments were evaluated by the Fisher least significant difference method. Index value pairwise comparisons were evaluated using the Kruskal–Wallis nonparametric test in Sigma XL (v9.0). Comparisons of cation levels in urine and plasma between strains and between diets as well as the effect of DTG on the incidence of NTDs in LM/Bc dams was performed by one-way ANOVA followed by Dunnett’s multiple comparisons test using GraphPad Prism version 9.5.0 for Windows. The level of significance p < 0.05 was used for all analyses. DTG pharmacokinetics were evaluated by noncompartmental analysis (NCA) using PKsolver ([Zhang et al., 2010]).

[2] = cited from earlier work
[3] = system: Madin-Darby canine kidney II cells; design: method as in Zamek-Gliszczynski et al., 2019; details: ref Zamek-Gliszczynski et al., 2019; cited from earlier work
hESC morphogenesis model = system: hESC morphogenesis model; design: method as in Kirkwood-Johnson et al., 2021; details: ref Kirkwood-Johnson et al., 2021; cited from earlier work
[4] = system: P19C5 mouse embryonal carcinoma cell; design: method as in Kirkwood-Johnson et al., 2021; details: exposure within the first 1-2 days; ref Kirkwood-Johnson et al., 2021; cited from earlier work
zebrafish embryos = details: exposure initiated at 3 h post-fertilization; ref Cabrera et al., 2019; cited from earlier work
[5] = 750 mg/kg/day, pregnant LM/Bc mice, 10 daily oral doses DTG750
[6] = 750 mg/kg/day, pregnant LM/Bc mice, 10 daily oral doses DTG750 GD 0.5-GD 9.5
[7] = 750 mg/kg, non-pregnant LM/Bc mice, single oral dose DTG750
[8] = non-pregnant LM/Bc mice, single oral dose DTG 750 mg/kg
[9] = non-pregnant mouse single dose DTG750 vs human 50 mg single dose
[10] = non-pregnant mouse single dose DTG750 vs human 100 mg single dose
[11] = non-pregnant mouse single dose DTG750 vs human 100 mg × 7d
[12] = pregnant mouse 10 daily doses DTG750 vs pregnant women 2nd trimester 50 mg/d
[13] = human, non-pregnant, 50 mg single dose, ref Min et al., 2010
[14] = human, non-pregnant, 100 mg single dose, ref Min et al., 2010
[15] = human, non-pregnant, 100 mg × 7d, ref Wang et al., 2019
[16] = pregnant women, 2nd trimester, 50 mg/d, ref Mulligan et al., 2018

Work on C[C@@H]1CCO[C@H]2Cn3cc(C(=O)NCc4ccc(F)cc4F)c(=O)c(O)c3C(=O)N12 [DTG, Dolutegravir] yielded a Tmax [1, 5] of 2 h, a half-life [1, 5] of 4.4 h and a Cmax [1, 6] of 128 µg/mL. The AUC(0-t) [1, 6] was 847 µg·h/mL, the Tmax [1, 7] was 2 h and the half-life [1, 7] was 6.3 h. The Cmax [1, 8] was 133 µg/mL, the AUC(0-t) [1, 8] was 1300 µg·h/mL and the “AUC 0-24, mouse multiplication factor vs human” value [1, 9] was 18.4 x. For the same molecule, the “Cmax, mouse multiplication factor vs human” value (shortened to “Cmax … vs human”) [1, 9] was 28.9 x, the “AUC 0-24, mouse multiplication factor vs human” value [1, 10] was 9.9 x and the “Cmax … vs human” value [1, 10] was 16.4 x. The “AUC 0-24, mouse multiplication factor vs human” value [1, 11] was 14.1 x, the “Cmax … vs human” value [1, 11] was 19.8 x and the “AUC 0-24, mouse multiplication factor vs human” value [1, 12] was 17.8 x. The “Cmax … vs human” value [1, 12] was 35.3 x, the “AUC 0-24” value [2, 13] was 70.8 (50 mg single dose) ^1 µg*h/mL and the Cmax [2, 13] was 4.6 (50 mg single dose) ^1 µg/mL. For the same molecule, the Tmax [2, 13] was 1.25 h (50 mg single dose) ^1, the t½ [2, 13] was 13–14 h (50 mg single dose) ^1 and the “AUC 0-24” value [2, 14] was 131 (100 mg single dose) ^1 µg*h/mL. For the same molecule, the Cmax [2, 14] was 8.1 (100 mg single dose) ^1 µg/mL, the “AUC 0-24” value [2, 15] was 92.3 (100 mg × 7d) ^2 µg*h/mL and the Cmax [2, 15] was 6.7 (100 mg × 7d) ^2 µg/mL. The “AUC 0-24” value [2, 16] was 47.6 (33.4–63.7) (2nd trimester, 50 mg/d) ^3 µg*h/mL, the Cmax [2, 16] was 3.62 (2.57–4.63) µg/mL and the Tmax [2, 16] was 2 h (2nd trimester, 50 mg/d) ^3. The t½ [2, 16] was 11 h (2nd trimester, 50 mg/d) ^3, the “effect on inhibition of folate transport” value [3] was “did not find a significant DTG or INSTI class effect” and the “effect on 3D morphogenesis” value (hESC morphogenesis model) was “altered growth and expression of genes involved in body patterning”. For the same molecule, the “growth and axial elongation” value [4] was “concentration-dependent inhibition of growth and axial elongation” and the mortality (zebrafish embryos) was “Significant mortality”.
